# Source: ChEMBL document CHEMBL3045835, “Comparative study of conventional and microwave-assisted synthesis of some Schiff bases and their potential as antimicrobial agents” (2012)
# What was measured:
# Assay type in all cases: functional
# [1] = system: Aspergillus niger; experiment: Antifungal activity against Aspergillus niger MTCC 2546 at 100 ug/ml after 18 hr by cup-plate method; settings: MTCC 2546, 18 h, read-out: DIZ
# [2] = system: Penicillium chrysogenum; experiment: Antifungal activity against Penicillium chrysogenum MTCC 161 at 100 ug/ml after 18 hr by cup-plate method; settings: MTCC 161, 18 h, read-out: DIZ
# [3] = system: Aspergillus niger; experiment: Antifungal activity against Aspergillus niger MTCC 2546 at 500 ug/ml after 18 hr by cup-plate method; settings: MTCC 2546, 18 h, read-out: DIZ
# [4] = system: Escherichia coli; experiment: Antibacterial activity against Escherichia coli MTCC 1573 at 500 ug/ml after 18 hr by cup-plate method; settings: MTCC 1573, 18 h, read-out: DIZ
# [5] = system: Pseudomonas fluorescens; experiment: Antibacterial activity against Pseudomonas fluorescens MTCC 2421 at 200 ug/ml after 18 hr by cup-plate method; settings: MTCC 2421, 18 h, read-out: DIZ
# [6] = system: Staphylococcus aureus; experiment: Antibacterial activity against Staphylococcus aureus MTCC 1430 after 24 hr by broth dilution method; settings: MTCC 1430, 24 h
# [7] = system: Escherichia coli; experiment: Antibacterial activity against Escherichia coli MTCC 1573 after 24 hr by broth dilution method; settings: MTCC 1573, 24 h
# [8] = system: Pseudomonas fluorescens; experiment: Antibacterial activity against Pseudomonas fluorescens MTCC 2421 at 100 ug/ml after 18 hr by cup-plate method; settings: MTCC 2421, 18 h, read-out: DIZ
# [9] = system: Staphylococcus aureus; experiment: Antibacterial activity against Staphylococcus aureus MTCC 1430 at 1000 ug/ml after 18 hr by cup-plate method; settings: MTCC 1430, 18 h, read-out: DIZ
# [10] = system: Staphylococcus aureus; experiment: Antibacterial activity against Staphylococcus aureus MTCC 1430 at 500 ug/ml after 18 hr by cup-plate method; settings: MTCC 1430, 18 h, read-out: DIZ
# [11] = system: Penicillium chrysogenum; experiment: Antifungal activity against Penicillium chrysogenum MTCC 161 at 1500 ug/ml after 18 hr by cup-plate method; settings: MTCC 161, 18 h, read-out: DIZ
# [12] = system: Bacillus subtilis; experiment: Antibacterial activity against Bacillus subtilis MTCC 441 after 24 hr by broth dilution method; settings: MTCC 441, 24 h
# [13] = system: Aspergillus niger; experiment: Antifungal activity against Aspergillus niger MTCC 2546 at 1500 ug/ml after 18 hr by cup-plate method; settings: MTCC 2546, 18 h, read-out: DIZ
# [14] = system: Escherichia coli; experiment: Antibacterial activity against Escherichia coli MTCC 1573 at 1500 ug/ml after 18 hr by cup-plate method; settings: MTCC 1573, 18 h, read-out: DIZ
# [15] = system: Micrococcus luteus; experiment: Antibacterial activity against Micrococcus luteus MTCC 1538 at 1500 ug/ml after 18 hr by cup-plate method; settings: MTCC 1538, 18 h, read-out: DIZ
# [16] = system: Pseudomonas fluorescens; experiment: Antibacterial activity against Pseudomonas fluorescens MTCC 2421 at 1000 ug/ml after 18 hr by cup-plate method; settings: MTCC 2421, 18 h, read-out: DIZ
# [17] = system: Staphylococcus aureus; experiment: Antibacterial activity against Staphylococcus aureus MTCC 1430 at 1500 ug/ml after 18 hr by cup-plate method; settings: MTCC 1430, 18 h, read-out: DIZ
# [18] = system: Staphylococcus aureus; experiment: Antibacterial activity against Staphylococcus aureus MTCC 1430 at 100 ug/ml after 18 hr by cup-plate method; settings: MTCC 1430, 18 h, read-out: DIZ
# [19] = system: Micrococcus luteus; experiment: Antibacterial activity against Micrococcus luteus MTCC 1538 at 500 ug/ml after 18 hr by cup-plate method; settings: MTCC 1538, 18 h, read-out: DIZ
# [20] = system: Pseudomonas fluorescens; experiment: Antibacterial activity against Pseudomonas fluorescens MTCC 2421 after 24 hr by broth dilution method; settings: MTCC 2421, 24 h
# [21] = system: Penicillium chrysogenum; experiment: Antifungal activity against Penicillium chrysogenum MTCC 161 after 24 hr by broth dilution method; settings: MTCC 161, 24 h
# [22] = system: Penicillium chrysogenum; experiment: Antifungal activity against Penicillium chrysogenum MTCC 161 at 1000 ug/ml after 18 hr by cup-plate method; settings: MTCC 161, 18 h, read-out: DIZ
# [23] = system: Staphylococcus aureus; experiment: Antibacterial activity against Staphylococcus aureus MTCC 1430 at 200 ug/ml after 18 hr by cup-plate method; settings: MTCC 1430, 18 h, read-out: DIZ
# [24] = system: Micrococcus luteus; experiment: Antibacterial activity against Micrococcus luteus MTCC 1538 after 24 hr by broth dilution method; settings: MTCC 1538, 24 h
# [25] = system: Escherichia coli; experiment: Antibacterial activity against Escherichia coli MTCC 1573 at 1000 ug/ml after 18 hr by cup-plate method; settings: MTCC 1573, 18 h, read-out: DIZ
# [26] = system: Pseudomonas aeruginosa; experiment: Antibacterial activity against Pseudomonas aeruginosa MTCC 424 after 24 hr by broth dilution method; settings: MTCC 424, 24 h
# [27] = system: Penicillium chrysogenum; experiment: Antifungal activity against Penicillium chrysogenum MTCC 161 at 500 ug/ml after 18 hr by cup-plate method; settings: MTCC 161, 18 h, read-out: DIZ
# [28] = system: Bacillus pumilus; experiment: Antibacterial activity against Bacillus pumilus MTCC 1456 after 24 hr by broth dilution method; settings: MTCC 1456, 24 h
# [29] = system: Pseudomonas aeruginosa; experiment: Antibacterial activity against Pseudomonas aeruginosa MTCC 424 at 1500 ug/ml after 18 hr by cup-plate method; settings: MTCC 424, 18 h, read-out: DIZ
# [30] = system: Micrococcus luteus; experiment: Antibacterial activity against Micrococcus luteus MTCC 1538 at 200 ug/ml after 18 hr by cup-plate method; settings: MTCC 1538, 18 h, read-out: DIZ
# [31] = system: Aspergillus niger; experiment: Antifungal activity against Aspergillus niger MTCC 2546 at 1000 ug/ml after 18 hr by cup-plate method; settings: MTCC 2546, 18 h, read-out: DIZ
# [32] = system: Micrococcus luteus; experiment: Antibacterial activity against Micrococcus luteus MTCC 1538 at 1000 ug/ml after 18 hr by cup-plate method; settings: MTCC 1538, 18 h, read-out: DIZ
# [33] = system: Aspergillus niger; experiment: Antifungal activity against Aspergillus niger MTCC 2546 after 24 hr by broth dilution method; settings: MTCC 2546, 24 h
# [34] = system: Micrococcus luteus; experiment: Antibacterial activity against Micrococcus luteus MTCC 1538 at 100 ug/ml after 18 hr by cup-plate method; settings: MTCC 1538, 18 h, read-out: DIZ
# [35] = system: Pseudomonas fluorescens; experiment: Antibacterial activity against Pseudomonas fluorescens MTCC 2421 at 500 ug/ml after 18 hr by cup-plate method; settings: MTCC 2421, 18 h, read-out: DIZ
# [36] = system: Pseudomonas fluorescens; experiment: Antibacterial activity against Pseudomonas fluorescens MTCC 2421 at 1500 ug/ml after 18 hr by cup-plate method; settings: MTCC 2421, 18 h, read-out: DIZ
structure (smiles),measurement,setting,value
OC(Cn1cncn1)(Cn1cncn1)c1ccc(F)cc1F [FLUCONAZOLE],zone of inhibition at 100 µg/mL,[1],28 mm
same,zone of inhibition at 100 µg/mL,[2],16 mm
C(=N\c1ccccn1)/c1cccc2ccccc12,zone of inhibition at 500 µg/mL,[3],12 mm
same,zone of inhibition at 500 µg/mL,[4],11 mm
same,zone of inhibition at 200 µg/mL,[5],13 mm
same,MIC,[6],400 µg/mL
same,MIC,[7],400 µg/mL
same,zone of inhibition at 100 µg/mL,[8],11 mm
same,zone of inhibition at 1000 µg/mL,[9],16 mm
same,zone of inhibition at 500 µg/mL,[10],14 mm
same,zone of inhibition at 1500 µg/mL,[11],17 mm
same,MIC,[12],500 µg/mL
same,zone of inhibition at 1500 µg/mL,[13],15 mm
same,zone of inhibition at 1500 µg/mL,[14],16 mm
same,zone of inhibition at 1500 µg/mL,[15],24 mm
same,zone of inhibition at 1000 µg/mL,[16],17 mm
same,zone of inhibition at 1500 µg/mL,[17],20 mm
same,zone of inhibition at 100 µg/mL,[18],11 mm
same,zone of inhibition at 500 µg/mL,[19],17 mm
same,MIC,[20],300 µg/mL
same,MIC,[21],500 µg/mL
same,zone of inhibition at 1000 µg/mL,[22],12 mm
same,zone of inhibition at 200 µg/mL,[23],12 mm
same,MIC,[24],400 µg/mL
same,zone of inhibition at 1000 µg/mL,[25],14 mm
same,MIC,[26],500 µg/mL
same,zone of inhibition at 500 µg/mL,[27],10 mm
same,MIC,[28],500 µg/mL
same,zone of inhibition at 1500 µg/mL,[29],15 mm
same,zone of inhibition at 200 µg/mL,[30],12 mm
same,zone of inhibition at 1000 µg/mL,[31],13 mm
same,zone of inhibition at 1000 µg/mL,[32],20 mm
same,MIC,[33],500 µg/mL
same,zone of inhibition at 100 µg/mL,[34],11 mm
same,zone of inhibition at 500 µg/mL,[35],15 mm
same,zone of inhibition at 1500 µg/mL,[36],19 mm
